This is an account of results in ChEMBL document CHEMBL1681693, “Synthesis and SAR of centrally active mGlu5 positive allosteric modulators based on an aryl acetylenic bicyclic lactam scaffold” (Bioorg Med Chem Lett, 2011).

Active and inactive are the calls of the source. The calls are words filed in the database; no cut-off is given here.

For experiment [1], the target named is T1, Metabotropic glutamate receptor 5 (Homo sapiens, UniProt P41594). Put plainly: Positive allosteric modulation of mGlu5 receptor assessed as calcium mobilization at 30 uM relative to glutamate. It counts as functional. On the technique in general: Calcium flux is commonly read through the fluorescence of an indicator in the cells.
Target sequence in this assay (P41594 21-1212 limits assumed): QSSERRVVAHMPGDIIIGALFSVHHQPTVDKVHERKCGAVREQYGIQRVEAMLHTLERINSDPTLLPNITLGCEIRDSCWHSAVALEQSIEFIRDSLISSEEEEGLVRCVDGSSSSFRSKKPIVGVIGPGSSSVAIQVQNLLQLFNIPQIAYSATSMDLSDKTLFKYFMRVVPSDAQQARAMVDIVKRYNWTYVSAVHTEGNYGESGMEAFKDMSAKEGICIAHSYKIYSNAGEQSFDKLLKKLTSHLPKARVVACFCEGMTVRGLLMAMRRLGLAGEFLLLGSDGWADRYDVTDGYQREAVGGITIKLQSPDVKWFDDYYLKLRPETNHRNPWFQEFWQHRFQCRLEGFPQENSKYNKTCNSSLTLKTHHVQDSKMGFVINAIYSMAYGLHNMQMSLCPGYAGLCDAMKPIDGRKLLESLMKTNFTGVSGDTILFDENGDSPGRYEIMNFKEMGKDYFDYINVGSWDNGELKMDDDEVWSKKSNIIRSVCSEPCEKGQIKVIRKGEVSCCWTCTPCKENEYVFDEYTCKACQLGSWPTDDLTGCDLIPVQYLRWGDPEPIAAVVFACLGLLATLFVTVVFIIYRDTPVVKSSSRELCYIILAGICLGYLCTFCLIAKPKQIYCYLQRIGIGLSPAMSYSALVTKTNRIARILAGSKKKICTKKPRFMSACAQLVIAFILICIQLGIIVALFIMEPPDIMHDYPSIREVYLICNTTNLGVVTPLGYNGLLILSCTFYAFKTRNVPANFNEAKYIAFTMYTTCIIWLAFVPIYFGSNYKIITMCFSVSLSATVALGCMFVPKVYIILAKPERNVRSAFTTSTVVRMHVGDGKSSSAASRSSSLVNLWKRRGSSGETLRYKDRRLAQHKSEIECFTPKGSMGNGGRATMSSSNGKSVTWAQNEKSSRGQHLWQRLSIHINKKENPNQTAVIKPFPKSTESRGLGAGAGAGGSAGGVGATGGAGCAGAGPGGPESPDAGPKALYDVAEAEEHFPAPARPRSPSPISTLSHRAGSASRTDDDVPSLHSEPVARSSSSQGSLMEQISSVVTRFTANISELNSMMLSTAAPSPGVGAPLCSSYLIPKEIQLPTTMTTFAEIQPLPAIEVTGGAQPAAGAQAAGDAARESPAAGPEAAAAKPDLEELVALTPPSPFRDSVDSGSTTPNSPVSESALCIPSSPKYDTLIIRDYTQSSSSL
Experiment [2] addresses T1, Metabotropic glutamate receptor 5. Put plainly: Positive allosteric modulation of mGlu5 receptor assessed as calcium mobilization. It counts as functional.
Target sequence in this assay (P41594 whole entry): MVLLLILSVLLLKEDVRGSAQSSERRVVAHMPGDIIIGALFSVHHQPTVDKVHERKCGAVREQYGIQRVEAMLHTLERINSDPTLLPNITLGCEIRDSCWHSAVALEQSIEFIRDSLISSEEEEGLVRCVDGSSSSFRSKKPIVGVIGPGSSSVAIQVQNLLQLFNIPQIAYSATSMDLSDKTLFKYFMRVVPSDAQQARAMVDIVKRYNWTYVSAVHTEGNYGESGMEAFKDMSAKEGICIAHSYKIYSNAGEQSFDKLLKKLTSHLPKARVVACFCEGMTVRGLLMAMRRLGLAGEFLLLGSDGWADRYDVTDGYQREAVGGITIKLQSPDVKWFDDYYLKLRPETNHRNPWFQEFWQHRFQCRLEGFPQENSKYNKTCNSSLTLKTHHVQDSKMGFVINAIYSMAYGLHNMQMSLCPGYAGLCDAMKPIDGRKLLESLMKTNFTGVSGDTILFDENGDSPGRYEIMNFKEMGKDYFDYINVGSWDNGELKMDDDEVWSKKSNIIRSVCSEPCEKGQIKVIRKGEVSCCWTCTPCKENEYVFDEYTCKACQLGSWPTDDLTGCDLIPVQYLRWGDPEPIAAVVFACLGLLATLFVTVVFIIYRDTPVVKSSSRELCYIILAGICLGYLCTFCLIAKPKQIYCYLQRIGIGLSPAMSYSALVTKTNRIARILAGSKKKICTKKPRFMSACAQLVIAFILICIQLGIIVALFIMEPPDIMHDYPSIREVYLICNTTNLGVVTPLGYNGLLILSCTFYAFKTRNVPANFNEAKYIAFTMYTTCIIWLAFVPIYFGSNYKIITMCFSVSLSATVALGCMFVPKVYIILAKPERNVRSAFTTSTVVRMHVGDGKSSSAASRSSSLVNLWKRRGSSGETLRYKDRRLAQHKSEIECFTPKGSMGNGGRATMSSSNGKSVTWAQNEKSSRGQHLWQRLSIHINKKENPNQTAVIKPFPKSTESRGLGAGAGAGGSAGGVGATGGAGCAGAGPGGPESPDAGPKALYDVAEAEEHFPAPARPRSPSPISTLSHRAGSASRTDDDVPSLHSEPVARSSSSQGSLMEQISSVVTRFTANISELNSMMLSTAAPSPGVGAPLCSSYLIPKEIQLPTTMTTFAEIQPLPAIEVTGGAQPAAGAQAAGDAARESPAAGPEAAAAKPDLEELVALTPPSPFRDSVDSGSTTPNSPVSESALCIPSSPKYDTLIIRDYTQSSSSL
For experiment [3], the system named is Rattus norvegicus. Put plainly: Antipsychotic activity in rat assessed as reversal of amphetamine-induced hyperlocomotion at 30 mg/kg, ip. Format: functional, organism-based. More on the design: dose 30 mg/kg.
Experiment [4] has as its target T1, Metabotropic glutamate receptor 5. Description: Antagonist activity against mGlu5 receptor assessed as inhibition of calcium mobilization.
Target sequence in this assay (P41594 whole entry): as above

Broadly, the EC50 is the concentration giving half of the maximal effect. On to `O=C(c1ccc(C#Cc2ccccc2)cc1)N1CCC(O)CC1`, for which the Activity in experiment [1] was found to be 72%. The EC50 in experiment [2] was 0.01 µM.

With `O=C1NC(=O)c2cc(C#Cc3ccc(F)cc3)ccc21`, the Activity in experiment [1] is 88%. The EC50 in experiment [2] turned out to be 0.16 µM.

In the case of `CCCN1CCc2cc(C#Cc3ccccc3)ccc2C1=O`, the outcome in experiment [3] was Active. For the same compound, in experiment [1], the Activity is 97%. Further, the EC50 in experiment [2] stood at 0.16 µM.

For `O=C1c2ccc(C#Cc3ccccc3)cc2C(=O)N1CCc1ccccn1`, the Activity in experiment [1] was 40%. The EC50 in experiment [2] was determined as 0.87 µM.

For the compound `O=C1NCCc2cc(C#Cc3ccc(F)cc3F)ccc21`, the Activity in experiment [1] worked out at 59%. The EC50 in experiment [2] was found to be 0.85 µM.

As to `Cc1ccccc1C#Cc1ccc2c(c1)CCNC2=O`, the Activity in experiment [1] turned out to be 53%. The EC50 in experiment [2] stood at 0.61 µM.

Consider `O=C1c2ccc(C#Cc3cccc(F)c3)nc2CCN1CC1CCC1`, for which, in experiment [1], the Activity stood at 53%. The EC50 in experiment [2] was 0.13 µM.

For the compound `O=C1NCCc2cc(C#Cc3cccc(Cl)c3)ccc21`, the Activity in experiment [1] worked out at 68%. In experiment [2], the concentration giving a half-maximal response (EC50) was 0.47 µM.

Regarding `O=C1c2ccc(C#Cc3ccccc3)cc2CCN1CC1CCC1`, in experiment [1], the Activity was determined as 91%. The half-maximal effective concentration (EC50) in experiment [2] is 0.27 µM.

Take `O=C1NCc2cc(C#Cc3ccc(F)cc3)ccc21`: the Activity in experiment [1] stood at 60%. For the same compound, the EC50 in experiment [2] was found to be 0.35 µM.

As for `O=C(NC1CCC1)c1ccc(C#Cc2cccc(F)c2)nc1`, in experiment [1], the Activity is 87%. In experiment [2], the half-maximal effective concentration (EC50) came out at 0.016 µM.

The term IC50 denotes the point on the concentration scale where inhibition reaches its midpoint. Regarding `CN1CCc2nc(C#Cc3cccc(F)c3)ccc2C1=O`, the IC50 in experiment [4] is 0.17 µM.

On to `O=C1NCCc2cc(C#Cc3ccc(Cl)cc3)ccc21`, for which, in experiment [2], the EC50 was above 10 µM.

On to `O=C1NCCc2cc(C#Cc3ccc(F)cc3)ccc21`, for which the Activity in experiment [1] stood at 81%. Further, in experiment [2], the EC50 came out at 0.26 µM.

`O=C1c2ccc(C#Cc3cccc(F)c3)nc2CCN1CC1CC1`: in experiment [4], the IC50 is 0.66 µM.

With `O=C1NC(=O)c2cc(C#Cc3ccccc3F)ccc21`, in experiment [1], the Activity worked out at 93%. Also, in experiment [2], the EC50 was determined as 0.012 µM.

For `O=C1NCCc2cc(C#Cc3ccccc3)ccc21`, the outcome in experiment [3] was Active.

For `O=C1NCCc2cc(C#Cc3ccccc3Cl)ccc21`, in experiment [1], the Activity worked out at 50%. For the same compound, the EC50 in experiment [2] worked out at 3.7 µM.

With `O=C1NCc2cc(C#Cc3ccccc3)ccc21`, the Activity in experiment [1] is 69%.

In the case of `O=C1c2ccc(C#Cc3ccccc3)cc2CCN1Cc1ccccc1`, in experiment [1], the Activity was 90%. For the same compound, the concentration for a half-maximal effect (EC50) in experiment [2] was determined as 0.55 µM.

For `CN1CCc2cc(C#Cc3ccccc3)ccc2C1=O`, in experiment [1], the Activity is 53%. Besides, the EC50 in experiment [2] amounted to 0.25 µM.

With `COc1ccc(C#Cc2ccc3c(c2)CCNC3=O)cc1`, in experiment [2], the half-maximal effective concentration (EC50) is above 10 µM.

Regarding `CCCCN1CCc2nc(C#Cc3cccc(F)c3)ccc2C1=O`, the Activity in experiment [1] was 46%. For the same compound, the concentration giving a half-maximal response (EC50) in experiment [2] came to 0.056 µM.

Consider `O=C1NC(=O)c2cc(C#Cc3cccc(F)c3)ccc21`, for which, in experiment [1], the Activity stood at 99%. Moreover, in experiment [2], the EC50 was 0.035 µM.

Turning to `O=C1c2ccc(C#Cc3ccccc3)cc2CCN1CC1CC1`, the outcome in experiment [3] was Active. Also, the Activity in experiment [1] worked out at 69%. For the same compound, the EC50 in experiment [2] was determined as 0.18 µM.

For `Cc1cc(C#Cc2ccc3c(c2)CCNC3=O)ccc1F`, the Activity in experiment [1] was 53%. Further, the EC50 in experiment [2] amounted to 4.9 µM.

For the compound `COc1cccc(C#Cc2ccc3c(c2)CCNC3=O)c1`, the Activity in experiment [1] was determined as 58%. For the same compound, in experiment [2], the concentration for a half-maximal effect (EC50) worked out at 3.4 µM.

On to `O=C1c2ccc(C#Cc3ccccc3)cc2C(=O)N1CCc1ccncc1`, for which the Activity in experiment [1] is 76%. In addition, in experiment [2], the EC50 was found to be 0.9 µM.

With `O=C1c2ccc(C#Cc3ccccc3)cc2CCN1CCN1CCOCC1`, the Activity in experiment [1] amounted to 84%. The EC50 in experiment [2] stood at 3.6 µM.

Turning to `O=C1c2ccc(C#Cc3ccccc3)cc2CCN1CCN1CCC1`, the Activity in experiment [1] was 77%. For the same compound, in experiment [2], the 50% effective concentration (EC50) is 4 µM.

In the case of `CCCCN1CCc2cc(C#Cc3ccccc3)ccc2C1=O`, the Activity in experiment [1] is 97%. For the same compound, the EC50 in experiment [2] was determined as 0.096 µM.

For the compound `O=C1NCCc2cc(C#Cc3ccccc3F)ccc21`, in experiment [1], the Activity came out at 80%. Moreover, the 50% effective concentration (EC50) in experiment [2] was determined as 0.15 µM.

Turning to `Cc1cccc(C#Cc2ccc3c(c2)CCNC3=O)c1`, the Activity in experiment [1] worked out at 76%. In addition, the EC50 in experiment [2] came out at 0.17 µM.

In the case of `O=C1c2ccc(C#Cc3ccccc3)cc2C(=O)N1CCN1CCOCC1`, in experiment [1], the Activity is 44%. The concentration for a half-maximal effect (EC50) in experiment [2] amounted to 5.7 µM.

`O=C1NCCc2nc(C#Cc3cccc(F)c3)ccc21`: the Activity in experiment [1] stood at 72%. The EC50 in experiment [2] was found to be 0.29 µM.

`O=C1NCc2cc(C#Cc3cccc(F)c3)ccc21`: the Activity in experiment [1] was 71%. Further, the EC50 in experiment [2] is 0.066 µM.

In the case of `O=C1NC(=O)c2cc(C#Cc3ccc(F)c(F)c3)ccc21`, the Activity in experiment [1] was 84%. For the same compound, the EC50 in experiment [2] was found to be 0.17 µM.

As for `O=C1NCc2cc(C#Cc3ccccc3F)ccc21`, in experiment [1], the Activity turned out to be 67%. For the same compound, the EC50 in experiment [2] was 0.2 µM.

On to `CC(C)CN1CCc2nc(C#Cc3cccc(F)c3)ccc2C1=O`, for which the Activity in experiment [1] is 40%. Further, the EC50 in experiment [2] came out at 0.054 µM.
